Patent US20240182869A1 (priority 2021, published 2024)
Read-outs that look alike come from different tables or passages of the source.

Tests used:
[1] = test system: C. perfringens; format: cell-based, Clostridium perfringens
[2] = test system: C. perfringens; format: cell-based, Clostridium perfringens; remark: listed apart in the source
[3] = test system: C. perfringens strain CP6; format: in vivo, Ross x Ross broiler chickens; conditions: for Adjusted FCR: adjusted for mortality
[4] = test system: C. perfringens strain CP6; format: in vivo, Ross x Ross broiler chickens; conditions: T3 BMD 55 gm/metric ton in feed, C. perfringens challenge; for Adjusted FCR: adjusted for mortality
[5] = test system: C. perfringens isolates; format: cell-based, Clostridium perfringens
[6] = Day 0 to 14, T3 BMD 55 gm/metric ton, C. perfringens challenge
[7] = Day 0 to 22, T3 BMD 55 gm/metric ton, C. perfringens challenge
[8] = Day 0 to 28, T3 BMD 55 gm/metric ton, C. perfringens challenge
[9] = T3 BMD 55 gm/metric ton, C. perfringens challenge, DOT 22

## Clostridium phage vB_CpeM_ACP45
[1]
  Virulence Index: 0.91
[2]
  Cocktail MOI: 0.01
  Individual MOI: 0.01

## Clostridium phage vB_CpeP_ACP11
[1]
  Virulence Index: 0.03
[2]
  Cocktail MOI: 0.01
  Individual MOI: 0.1

## Clostridium phage vB_CpeP_ACP22
[1]
  Virulence Index: 0.14
[2]
  Cocktail MOI: 0.01
  Individual MOI: 0.1

## Clostridium phage vB_CpeP_ACP8
[1]
  Virulence Index: 0.92
[2]
  Cocktail MOI: 0.001
  Individual MOI: 0.01

## Clostridium phage vB_CpeP_ACP10
[1]
  Virulence Index: 0.19
[2]
  Cocktail MOI: 0.001
  Individual MOI: 0.1

## Clostridium phage vB_CpeP_MN6171
[1]
  Virulence Index: 0.19
[2]
  Cocktail MOI: 0.01
  Individual MOI: 0.01

## Clostridium phage vB_CpeP_ACP5
[1]
  Virulence Index: 0.86
[2]
  Cocktail MOI: 0.001
  Individual MOI: 0.01

## Bacitracin methylene disalicylate [Bacitracin Methylene Disalicylate (BMD)]
[3]; [6]
  Feed Intake: 4.55A Kg/Cage
  Non-Adjusted FCR: 1.353AB
  Weight Gain: 0.338A kg
  Adjusted FCR: 1.353AB
[3]; [7]
  Feed Intake: 10.47A Kg/Cage
  Non-Adjusted FCR: 1.403AB
  Weight Gain: 0.776A kg
  Adjusted FCR: 1.361AB
[3]; [8]
  Feed Intake: 15.93A Kg/Cage
  Non-Adjusted FCR: 1.483B
  Overall Mortality: 3.33AB Percent
  Weight Gain: 1.154A kg
  Adjusted FCR: 1.453A
[3]; [9]
  Lesion Scores Dunn's All-Pairwise Comparisons Test: 13.83A
  Lesion Scores Kruskal-Wallis One-Way AOV (Mean Rank): 13.83
  Lesion Scores Mean Score (Hofacre, 1998): 0.33A
[3]; both doses (T4 & T5) and BMD (T3)
  FCR to DOT 28 versus challenge control (T2): significantly better than the challenge control
[4]; Day 0 to 14
  Feed Intake: 4.87A Kg/Cage
  Non-Adjusted FCR: 1.217AB
  Weight Gain: 0.430A ^ kg
  Adjusted FCR: 1.186AB
[4]; Day 0 to 22
  Feed Intake: 11.55AB Kg/Cage
  Non-Adjusted FCR: 1.662BC
  Weight Gain: 0.861AB kg
  Adjusted FCR: 1.470AB
[4]; Day 0 to 28
  Feed Intake: 16.095BC Kg/Cage
  Non-Adjusted FCR: 1.867BC
  Overall Mortality: 24.00AB Percent
  Weight Gain: 1.236AB kg
  Adjusted FCR: 1.581A
[4]
  NE Percent Mortality: 18.00A Percent
[4]; DOT 22
  Lesion Scores Dunn's All-Pairwise Comparisons Test: 33.00AB
  Lesion Scores Kruskal-Wallis One-Way AOV (Mean Rank): 33.00
  Lesion Scores Mean Score (Hofacre, 1998): 0.60AB
[4]; listed as BMD
  NE Percent Mortality: 18%

## Clostridium phage vB_CpeM_SMS460
[1]
  Virulence Index: 0.95
[2]
  Cocktail MOI: 0.001
  Individual MOI: 0.01
[5]
  Clostridium perfringens strains capable of being infected or lysed (host range, FIG. 2): ATCC 13124, Q143.CN7, JBCNJ055, Q100,CN13, Q159.4C, JBFR063, M030.1C, CP_UoA_CA_39, CP_UoA_CA_24, JBCNI056, JBCNC058, JBCNC056 and CP_UoA_CA_132

## Clostridium phage vB_CpeP_VLR28
[1]
  Virulence Index: 0.18
[2]
  Cocktail MOI: 0.001
  Individual MOI: 0.01

## Clostridium phage vB_CpeS_RO96
[1]
  Virulence Index: 0.67
[2]
  Cocktail MOI: 0.01
  Individual MOI: 0.01

## Clostridium phage vB_CpeM_AE3110
[1]
  Virulence Index: 0.24
[2]
  Cocktail MOI: 0.01
  Individual MOI: 0.1
